Source: patent US6855325B1, “Use of hypo-osmotic saline solutions and medicine based on said solutions” (Laboratoires GOEMAR S.A., priority 1999, dated 2005)
Entries after “also recorded” stand apart in the source; their conditions may differ.

Legend:
[1] = system: normal human epidermic keratinocytes; experiment: cytotoxic effect: percentage of proteins remaining in keratinocytes after 4 hours of incubation; type: cell-based; settings: 4 hours incubation
Experimental: For the examination of the toxicity, normal human epidermic keratinocytes were used which were taken from epidermis samples; they consist especially in keratinocytes isolated from the remains of an operation of an abdominal plasty carried out on a person (patient No. 10020).
These keratinocytes were cultivated at 37° C. in a culture medium intended for keratinocytes or MCK, i.e. the one which is marketed under the designation “SFM defined-keratinocyte medium” by the company GIBCO under a humid atmosphere containing 5% of CO2 until confluence of the monolayers.
These six products were incubated during 4 hours in the cultures of the keratinocytes.
Before the incubation, the cells, i.e. the keratinocytes, were rinsed with the tested products in order to eliminate any trace of culture medium.
The saline solutions J, I, H, and K and the physiological serum were used without dilution.
The dexamethasone has been tested at 10 μM in the medium MCK.
The cultures of keratinocytes were incubated in the presence of the six products during 4 hours at 37° C., under a humid atmosphere containing 5% of CO2.
The control cultures, incubated in the medium MCK in the absence of the six products, were carried out in parallel.
All these trials were carried out three times. […]

interleukine IL-8 = experiment: release of interleukine IL-8 in cultures of keratinocytes under the influence of MCK medium; type: cell-based, human; settings: 4 hours incubation; saline solutions and physiological serum without dilution, dexamethasone 10 μM in MCK; control MCK = 100
Excerpt: Then the ability of the hypoosmotic saline solutions used according to the invention to prevent and to limit the release under the influence of certain diseases or certain pro-inflammatory agents of the chemical mediators responsible for the starting of the cutaneous inflammatory phenomena has been examined.
The tested chemical mediator was interleukine IL-8.
The pro-inflammatory agent was consisting of the MCK culture medium which appears to be at the origin of a strong release of interleukine IL-8 in cultures of keratinocytes.
The procedure was similar to that used in the above disclosed tests concerning the estimation of the cytotoxicity of the various tested products.
These products were the same.
The duration of the incubation was also equal to 4 hours.
Under the influence of the MCK medium, the release of interleukine IL-8 was 100 pg/mg of proteins; in that same medium determination has been carried out of the amounts of interleukine IL-8 released in the presence of the six tested products, i.e. on the one hand, the products J, I, H, K as well as physiological serum which were used without dilution and, on the other hand, dexamethasone which has been used at the rate of 10 μM in the MCK medium.

SMILES: C[C@@H]1C[C@H]2[C@@H]3CCC4=CC(=O)C=C[C@]4(C)[C@@]3(F)[C@@H](O)C[C@]2(C)[C@@]1(O)C(=O)CO [Dexamethasone, dexamethasone]
- cytotoxic effect with respect to keratinocytes (in words) [1]: not cytotoxic; also recorded: very few cytotoxic
- amounts of interleukine IL-8 released (interleukine IL-8): 74 pg of IL-8/mg of proteins
